{"source": "paper PMC7156458", "about": "“Synthetic biology based construction of biological activity-related library of fungal decalin-containing diterpenoid pyrones” (Nature Communications, 2020)", "molecular_target": "Aβ42 (Homo sapiens, UniProt P05067)", "sequence (P05067 672-713)": "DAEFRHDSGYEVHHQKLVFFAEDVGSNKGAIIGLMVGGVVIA", "assay": "Th-T (thioflavin-T) assay of Aβ42 aggregation", "type": "biochemical", "details": "for Th-T fluorescence of Aβ42 with compound, mean of three wells (Fig. 7a source data): concentration 50, unit not given"}
{"smiles": "C=C1CC[C@@H]2[C@](C)(CC[C@H]3O[C@H](C=C(C)C)C[C@@]23C)[C@@H]1Cc1c(OC)oc(CO)c(C)c1=O", "note": "[Compound 20]", "values": [{"measurement": "Th-T fluorescence of Aβ42 with compound, mean of three wells (Fig. 7a source data)", "setting": "time-course reading M143", "result": 2.125}, {"measurement": "Th-T fluorescence of Aβ42 with compound, mean of three wells (Fig. 7a source data)", "setting": "time-course reading M144", "result": 2.117}, {"measurement": "Th-T fluorescence of Aβ42 with compound, mean of three wells (Fig. 7a source data)", "setting": "time-course reading M145", "result": 2.122}, {"measurement": "Th-T fluorescence of Aβ42 (sheet Fig. 7a), mean of three wells", "setting": "head suffix _10 (concentration 10), reading M63", "result": 3.458}, {"measurement": "Th-T fluorescence of Aβ42 (sheet Fig. 7a), mean of three wells", "setting": "head suffix _10 (concentration 10), reading M64", "result": 3.444}, {"measurement": "Th-T fluorescence of Aβ42 (sheet Fig. 7a), mean of three wells", "setting": "head suffix _10 (concentration 10), reading M65", "result": 3.449}, {"measurement": "Th-T fluorescence of Aβ42 (sheet Fig. 7a), mean of three wells", "setting": "head suffix _10 (concentration 10), reading M66", "result": 3.444}, {"measurement": "Th-T fluorescence of Aβ42 (sheet Fig. 7a), mean of three wells", "setting": "head suffix _10 (concentration 10), reading M67", "result": 3.437}, {"measurement": "Th-T fluorescence of Aβ42 (sheet Fig. 7a), mean of three wells", "setting": "head suffix _10 (concentration 10), reading M68", "result": 3.439}, {"measurement": "Th-T fluorescence of Aβ42 (sheet Fig. 7a), mean of three wells", "setting": "head suffix _10 (concentration 10), reading M69", "result": 3.4039}, {"measurement": "Th-T fluorescence of Aβ42 (sheet Fig. 7a), mean of three wells", "setting": "head suffix _10 (concentration 10), reading M70", "result": 3.402}, {"measurement": "Th-T fluorescence of Aβ42 (sheet Fig. 7a), mean of three wells", "setting": "head suffix _10 (concentration 10), reading M71", "result": 3.423}, {"measurement": "Th-T fluorescence of Aβ42 (sheet Fig. 7a), mean of three wells", "setting": "head suffix _10 (concentration 10), reading M72", "result": 3.425}, {"measurement": "Th-T fluorescence of Aβ42 (sheet Fig. 7a), mean of three wells", "setting": "head suffix _10 (concentration 10), reading M73", "result": 3.414}, {"measurement": "Th-T fluorescence of Aβ42 (sheet Fig. 7a), mean of three wells", "setting": "head suffix _10 (concentration 10), reading M74", "result": 3.412}, {"measurement": "Th-T fluorescence of Aβ42 (sheet Fig. 7a), mean of three wells", "setting": "head suffix _10 (concentration 10), reading M75", "result": 3.393}, {"measurement": "Th-T fluorescence of Aβ42 (sheet Fig. 7a), mean of three wells", "setting": "head suffix _10 (concentration 10), reading M76", "result": 3.416}, {"measurement": "Th-T fluorescence of Aβ42 (sheet Fig. 7a), mean of three wells", "setting": "head suffix _10 (concentration 10), reading M77", "result": 3.391}, {"measurement": "Th-T fluorescence of Aβ42 (sheet Fig. 7a), mean of three wells", "setting": "head suffix _10 (concentration 10), reading M78", "result": 3.393}, {"measurement": "Th-T fluorescence of Aβ42 (sheet Fig. 7a), mean of three wells", "setting": "head suffix _10 (concentration 10), reading M79", "result": 3.378}, {"measurement": "Th-T fluorescence of Aβ42 (sheet Fig. 7a), mean of three wells", "setting": "head suffix _10 (concentration 10), reading M80", "result": 3.379}, {"measurement": "Th-T fluorescence of Aβ42 (sheet Fig. 7a), mean of three wells", "setting": "head suffix _10 (concentration 10), reading M81", "result": 3.38}, {"measurement": "Th-T fluorescence of Aβ42 (sheet Fig. 7a), mean of three wells", "setting": "head suffix _10 (concentration 10), reading M82", "result": 3.375}, {"measurement": "Th-T fluorescence of Aβ42 (sheet Fig. 7a), mean of three wells", "setting": "head suffix _10 (concentration 10), reading M83", "result": 3.373}, {"measurement": "Th-T fluorescence of Aβ42 (sheet Fig. 7a), mean of three wells", "setting": "head suffix _10 (concentration 10), reading M84", "result": 3.355}, {"measurement": "Th-T fluorescence of Aβ42 (sheet Fig. 7a), mean of three wells", "setting": "head suffix _20 (concentration 20), reading M63", "result": 3.439}, {"measurement": "Th-T fluorescence of Aβ42 (sheet Fig. 7a), mean of three wells", "setting": "head suffix _20 (concentration 20), reading M64", "result": 3.419}, {"measurement": "Th-T fluorescence of Aβ42 (sheet Fig. 7a), mean of three wells", "setting": "head suffix _20 (concentration 20), reading M65", "result": 3.416}, {"measurement": "Th-T fluorescence of Aβ42 (sheet Fig. 7a), mean of three wells", "setting": "head suffix _20 (concentration 20), reading M66", "result": 3.432}, {"measurement": "Th-T fluorescence of Aβ42 (sheet Fig. 7a), mean of three wells", "setting": "head suffix _20 (concentration 20), reading M67", "result": 3.438}, {"measurement": "Th-T fluorescence of Aβ42 (sheet Fig. 7a), mean of three wells", "setting": "head suffix _20 (concentration 20), reading M68", "result": 3.449}, {"measurement": "Th-T fluorescence of Aβ42 (sheet Fig. 7a), mean of three wells", "setting": "head suffix _20 (concentration 20), reading M69", "result": 3.405}, {"measurement": "Th-T fluorescence of Aβ42 (sheet Fig. 7a), mean of three wells", "setting": "head suffix _20 (concentration 20), reading M70", "result": 3.395}, {"measurement": "Th-T fluorescence of Aβ42 (sheet Fig. 7a), mean of three wells", "setting": "head suffix _20 (concentration 20), reading M71", "result": 3.403}, {"measurement": "Th-T fluorescence of Aβ42 (sheet Fig. 7a), mean of three wells", "setting": "head suffix _20 (concentration 20), reading M72", "result": 3.419}, {"measurement": "Th-T fluorescence of Aβ42 (sheet Fig. 7a), mean of three wells", "setting": "head suffix _20 (concentration 20), reading M73", "result": 3.421}, {"measurement": "Th-T fluorescence of Aβ42 (sheet Fig. 7a), mean of three wells", "setting": "head suffix _20 (concentration 20), reading M74", "result": 3.387}, {"measurement": "Th-T fluorescence of Aβ42 (sheet Fig. 7a), mean of three wells", "setting": "head suffix _20 (concentration 20), reading M75", "result": 3.3567}, {"measurement": "Th-T fluorescence of Aβ42 (sheet Fig. 7a), mean of three wells", "setting": "head suffix _20 (concentration 20), reading M76", "result": 3.391}, {"measurement": "Th-T fluorescence of Aβ42 (sheet Fig. 7a), mean of three wells", "setting": "head suffix _20 (concentration 20), reading M77", "result": 3.3972}, {"measurement": "Th-T fluorescence of Aβ42 (sheet Fig. 7a), mean of three wells", "setting": "head suffix _20 (concentration 20), reading M78", "result": 3.402}, {"measurement": "Th-T fluorescence of Aβ42 (sheet Fig. 7a), mean of three wells", "setting": "head suffix _20 (concentration 20), reading M79", "result": 3.362}, {"measurement": "Th-T fluorescence of Aβ42 (sheet Fig. 7a), mean of three wells", "setting": "head suffix _20 (concentration 20), reading M80", "result": 3.347}, {"measurement": "Th-T fluorescence of Aβ42 (sheet Fig. 7a), mean of three wells", "setting": "head suffix _20 (concentration 20), reading M81", "result": 3.353}, {"measurement": "Th-T fluorescence of Aβ42 (sheet Fig. 7a), mean of three wells", "setting": "head suffix _20 (concentration 20), reading M82", "result": 3.387}, {"measurement": "Th-T fluorescence of Aβ42 (sheet Fig. 7a), mean of three wells", "setting": "head suffix _20 (concentration 20), reading M83", "result": 3.377}, {"measurement": "Th-T fluorescence of Aβ42 (sheet Fig. 7a), mean of three wells", "setting": "head suffix _20 (concentration 20), reading M84", "result": 3.32}, {"measurement": "Th-T fluorescence of Aβ42 (sheet Fig. 7a), mean of three wells", "setting": "head suffix _50 (concentration 50), reading M63", "result": 2.073}, {"measurement": "Th-T fluorescence of Aβ42 (sheet Fig. 7a), mean of three wells", "setting": "head suffix _50 (concentration 50), reading M64", "result": 2.076}, {"measurement": "Th-T fluorescence of Aβ42 (sheet Fig. 7a), mean of three wells", "setting": "head suffix _50 (concentration 50), reading M65", "result": 2.0862}, {"measurement": "Th-T fluorescence of Aβ42 (sheet Fig. 7a), mean of three wells", "setting": "head suffix _50 (concentration 50), reading M66", "result": 2.098}, {"measurement": "Th-T fluorescence of Aβ42 (sheet Fig. 7a), mean of three wells", "setting": "head suffix _50 (concentration 50), reading M67", "result": 2.131}, {"measurement": "Th-T fluorescence of Aβ42 (sheet Fig. 7a), mean of three wells", "setting": "head suffix _50 (concentration 50), reading M68", "result": 2.106}, {"measurement": "Th-T fluorescence of Aβ42 (sheet Fig. 7a), mean of three wells", "setting": "head suffix _50 (concentration 50), reading M69", "result": 2.087}, {"measurement": "Th-T fluorescence of Aβ42 (sheet Fig. 7a), mean of three wells", "setting": "head suffix _50 (concentration 50), reading M70", "result": 2.078}, {"measurement": "Th-T fluorescence of Aβ42 (sheet Fig. 7a), mean of three wells", "setting": "head suffix _50 (concentration 50), reading M71", "result": 2.105}, {"measurement": "Th-T fluorescence of Aβ42 (sheet Fig. 7a), mean of three wells", "setting": "head suffix _50 (concentration 50), reading M72", "result": 2.132}]}
